Tests used:
[1] = system: MDA-MB-468 tumor; assay: Tumor mass of MDA-MB-468 tumor in mice; assay type: in vivo, mice (BALB/c nu/nu); details: 30 mg/kg/day injected for 7 days, Days 3, 5, 8 relative to Day 1, FIG. 4
Protocol: MDA-MB-468 cells were cultured in a medium (DMEM-F12 (Sigma) containing 10% FBS (Hyclone)) until cells become 80% confluent in a 225-cm^2 flask. The obtained cultured cells were suspended in 100 μl of DMEM-F12 at about 1×10^7 cells to obtain a MDA-MB-468 cell suspension.
Fat pad of 10-week-old female mice (BALB/c nu/nu) was injected with 100 μl of the MDA-MB-468 cell suspension. After 14 days, the growth of tumor in mice was confirmed. Thus, tumor was allowed to be formed in three mice.
At 14 days after the injection of the MDA-MB-468 cell suspension, an inhibitor solution was injected to the mouse having tumor. Specifically, AG1478 was dissolved in 100 μl of dimethylsulfoxide (DMSO, Sigma) to obtain a inhibitor solution 1. The mouse was injected with the inhibitor solution 1 so that it received the inhibitor at a dose of 30 mg/kg/day. The inhibitor solution 1 was injected for consecutive 7 days. 4557W was dissolved in DMSO to obtain an inhibitor solution 2. […]
On Day 1, the mice were injected with the inhibitor solutions. On Days 1, 3, 5, and 8, the tumor mass (mm^3) in mice was measured. The tumor mass was calculated from the longitudinal and transverse diameters of the tumor measured, assuming that the shape of the tumor is an oval sphere.
The tumor mass of the mouse injected with DMSO was measured in a similar manner. […]

[2] = system: RTKs in cell membrane fraction MDA-MB-468; assay: RTK activity of cell membrane fraction with or without inhibitor (ELISA, Biotin-poly(Glu, Tyr) substrate); assay type: biochemical; details: treatment solution containing 100 μM inhibitor, 100 μM ATP, FIG. 1
Protocol: (§1) Cultured cells (13 types: A-431, KF, MDA-MB-468, RMUG-L, BT-474, ES2, MDA-MB-453, SK-Br-3, SNG-S, K-562, MDA-MB-231, MCF7 and T47D) were respectively mixed with 1 ml of a homogenizing reagent (containing 20 mM HEPES pH7.4, 0.2% protease inhibitors (PI), 10% glycerol, 200 μM Na3VO4 and 50 mM NaF), pressurized with a pestle to break cell membrane and cell homogenate was obtained. The obtained cell homogenate was centrifuged (20,000×g, 20 min.), the supernatant was discarded and the pellet was collected. The collected pellet was added with a solubilizing solution (containing 20 mM HEPES pH7.4, 1% NP40, 0.2% PI, 10% glycerol, 200 μM Na3VO4 and 50 mM NaF), mixed, pressurized with a pestle to solubilize cell membrane and centrifuged (20,000×g, 20 min.). The supernatant was then collected as the cell membrane fraction, adjusted its total protein amount to 40 μg/ml and used for the following experiments.
(§2) The ELISA plate used was the avidin coated plate (NeutrAvidin HBC White 96-Well Plates With SuperBlock Blocking Buffer; PIERCE). Each well of the plate was washed three times with TBS-T (containing 25 mM Tris, 150 mM NaCl and 0.05% Tween-20). A substrate solution 1 (50 μl; TBS containing 1 μg/ml Biotin-poly(Glu, Tyr) substrate) was added to each well and the plate was incubated with gentle shaking at 25° C. for 1.5 hours. After the incubation, each well was washed three times with TBS-T. Thus, Biotin-poly(Glu, Tyr) substrate was bound to the surface of each well of the ELISA plate. This ELISA plate was used for the following enzyme reaction.
(§3) The cell membrane fractions (25 μl each) of the above tumor cells were placed in seven tubes, respectively. To six tubes were added 25 μl of a treatment solution (20 mM HEPES pH7.4, 20 mM MnCl2, 2 mM DTT, 1% NP40, 10% glycerol, 200 μM Na3VO4, 50 mM NaF, 100 μM ATP, 400 μM PPI (BIOMOL)) containing 100 μM PD153035, 25 μl of treatment solution containing 100 μM AG1478, 25 μl of the treatment solution containing 100 μM 4557W, 25 μl of the treatment solution containing 100 μM Src inhibitor, 25 μl of the treatment solution containing 100 μM PDGFR inhibitor and 25 μl of the treatment solution containing 100 μM VEGFR inhibitor, respectively, to contact the cell membrane fractions with RTK activity inhibitors. To the remained tube was added with 25 μl of the treatment solution without inhibitors. The thus obtained solutions are called as reaction solutions. In order to suppress the enzyme activity of RTKs, the above procedures were carried out at below 4° C.
(§4) Each reaction solution (50 μl was distributed to each well of the ELISA plate prepared as above, and the plate was incubated at 25° C. for about 30 minutes to bring the cell membrane fractions having contacted or not with RTK activity inhibitors into contact with the substrate. After the incubation, each well was added with 100 μl of a reaction termination solution (TBS-T containing 5 mM EDTA) and washed three times with TBS-T. Each well was then washed with 300 μl of StartingBlock T20 (TBS) Blocking Buffer (PIERCE). After washing, each well was added with 100 μl of HRP-labeled primary antibody (p-Tyr (PY20), sc-508 HRP (SANTA Cruz Biotechnology), an antibody recognizing a phosphorylated tyrosine residue) diluted to 1000-fold with StartingBlock T20 (TBS) Blocking Buffer, and the plate was incubated with gentle shaking at 25° C. for about 1.5 hours. After the incubation, wells were washed for five times with TBS-T. After washing, each well was added with 150 μl of chemiluminescent substrate (SuperSignal ELISA PICO (PIERCE)), and after 5 min., luminescence was measured with a microplate reader GENios (TECAN) to measure RTK activities. […]

[3] = system: MDA-MB-468 cells; assay: VEGF secretion ability (Human VEGF Quantikine ELISA); assay type: cell-based; details: 1 μM inhibitor, 4 hours, FIG. 6
Protocol: (§5) The VEGF secretion ability was measured as follows. Cultured cells of MDA-MB-468, BT-474, MCF7 and MDA-MB-231 were seeded in a 6-well plate (Corning) at 1×10^6 cells/well and cultured at 37° C. in a medium (10% FBS). After 24 hours, the medium is changed to a serum free medium and the culture was continued for further 18 hours. The serum free medium used was DMEM/F12 (SIGMA) or RPMI1640 (SIGMA) supplemented with the antibiotics Antibiotic-Antimycotic (100×) (GIBCO). Thereafter, the medium was changed to the medium (10% FBS) containing 1 μM inhibitor in DMSO (PD153035, AG1478, PDGFR inhibitor or VEGFR inhibitor) and the culture was continued for additional 4 hours. The cell supernatant was then collected. The amount of VEGFs in the supernatant was measured with Human VEGF Quantikine ELISA Kit (R&D system) according to the attached protocol.
(§6) The control experiment was carried out with DMSO only instead of the inhibitor.
(§7) In FIG. 6, the y-axis corresponds to VEGF concentration (pg/ml), which reflects the amount of VEGFs secreted from the cells. In FIG. 6, “DMSO”, “PD”, “AG”, “PDGFR” and “VEGFR” represent the results of control, and the cells treated with PD153035, AG1478, PDGFR inhibitor and VEGFR inhibitor, respectively.

[4] = system: BT-474 cells; assay: as above; assay type: cell-based; details: 1 μM inhibitor, 4 hours, FIG. 6
Protocol: as §5, §6, §7

[5] = system: RTKs in cell membrane fraction MDA-MB-231; assay: RTK activity of cell membrane fraction with or without inhibitor (ELISA, Biotin-poly(Glu, Tyr) substrate); assay type: biochemical; details: treatment solution containing 100 μM inhibitor, 100 μM ATP, FIG. 2
Protocol: as §1, §2, §3, §4

[6] = system: RTKs in cell membrane fraction MCF7; assay: as above; assay type: biochemical; details: treatment solution containing 100 μM inhibitor, 100 μM ATP, FIG. 2
Protocol: as §1, §2, §3, §4

[7] = system: RTKs in cell membrane fraction BT-474; assay: as above; assay type: biochemical; details: treatment solution containing 100 μM inhibitor, 100 μM ATP, FIG. 1
Protocol: as §1, §2, §3, §4

[8] = system: tumor cell line (A-431); details: A-431, highest expression level of HER1; Non-Patent Document 1; cited from earlier work

Row | Structure (SMILES) | increase in the tumor mass [1] | RTK activity in the presence of the inhibitor (relative to control RTK activity) [2] | VEGF secretion amount compared to the control value [3] | VEGF secretion amount compared to the control value [4] | RTK activity in the presence of the inhibitor (relative to control RTK activity) [5] | RTK activity in the presence of the inhibitor (relative to control RTK activity) [6] | RTK activity in the presence of the inhibitor (relative to control RTK activity) [7] | proliferation of the tumor cell line [8]
1 | COc1cc2ncnc(Nc3ccc(OCc4ccccc4)cc3)c2cc1OC [4557W] | suppressed | decreased | – | – | – | – | – | –
2 | COc1cc2ncnc(Nc3cccc(Cl)c3)c2cc1OC [AG1478] | suppressed | decreased | decreased | decreased | not decreased | not decreased | decreased | –
3 | COc1cc2ncnc(Nc3ccc(F)c(Cl)c3)c2cc1OCCCN1CCOCC1 [Iressa, gefitinib] | – | – | – | – | – | – | – | suppressed at the highest degree
4 | COc1cc2ncnc(Nc3cccc(Br)c3)c2cc1OC [PD153035] | – | decreased | decreased | decreased | not decreased | not decreased | decreased | –

— patent publication US20110027809A1, “METHOD FOR EVALUATION OF DEGREE OF MALIGNANCY OF TUMOR CELL” (priority 2008, published 2011)
